Among the test systems are SK-MEL-2; OVCAR-4; T47D; HCT-116; 786-0; UACC-62; SNB-19; SF-295; BT-549; NCI-H226; Hs-578T; SK-MEL-28; Malme-3M; MDA-N; CAKI-1; MCF7; UACC-257; U-251; A498.
Holding throughout (test): inhibition of tumour cell growth, NCI panel, 48 h

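1) Cells in 96-well plates. 2) Compound, 48 h, 5 concentrations. 3) Linear interpolation between surrounding doses. 4) Unreached endpoint = highest concentration. GI50 marks 50% less growth.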 Active and inactive are the calls of the source. Cut-off read from the data, not from the text of the source: active = GI50 up to about 1.1 µM and inactive = higher.

Consider 9 compounds from ChEMBL document CHEMBL1201862, “PubChem BioAssay data set” (2004).

Consider `NC(=O)c1cnc2sc3ccccc3n2c1=O`, for which the GI50 in the test with SK-MEL-2, in the test with OVCAR-4, in the test with T47D, in the test on HCT-116, in the test on 786-0 and with UACC-62 was > 100 µM (inactive) each time. Further, the GI50 in the test with SNB-19 was > 100 µM (inactive); in the test on SF-295 it was > 100 µM (inactive); in the test on BT-549, > 100 µM (inactive); with NCI-H226 it was 34.5 µM (inactive); in the test with Hs-578T, 26.4 µM (inactive); with SK-MEL-28, > 100 µM (inactive). The GI50 in the test on Malme-3M, in the test on MDA-N, in the test on CAKI-1, in the test with MCF7 and in the test with UACC-257 was > 100 µM (inactive) in each case.

As to `COC(=O)/C=C/c1cc2c(cc1-c1c(C(=O)O)cc(OC)c(OC)c1OC)OCO2`, the GI50 in the test with OVCAR-4, with T47D, in the test on HCT-116, in the test on 786-0, with UACC-62 and in the test with SNB-19 was > 10 µM (inactive) each time. Besides, the GI50 in the test with SF-295, in the test with BT-549, in the test on U-251, with Hs-578T, with SK-MEL-28 and with Malme-3M was > 10 µM (inactive) in each case. Also, the GI50 in the test on MDA-N, in the test on CAKI-1, in the test on MCF7 and in the test on UACC-257 was > 10 µM (inactive) throughout.

Take `Cc1cc(C)c2cc(N)c(Cl)nc2n1`: the GI50 with SK-MEL-2, in the test with T47D, in the test on HCT-116, in the test with 786-0, with UACC-62 and in the test on SNB-19 was > 100 µM (inactive) each time. For the same compound, the GI50 is > 100 µM (inactive) in the test on SF-295; > 100 µM (inactive) with BT-549; > 100 µM (inactive) with NCI-H226; 99.5 µM (inactive) in the test with U-251; > 100 µM (inactive) in the test with Hs-578T; > 100 µM (inactive) in the test with Malme-3M. Moreover, the GI50 in the test with MDA-N, with CAKI-1, with MCF7 and with UACC-257 was > 100 µM (inactive) each time.

With `NC(=O)[N+](=CC(=S)Nc1ccccc1Cl)C(N)=O`, the GI50 with SK-MEL-2, with OVCAR-4, in the test on T47D, in the test on HCT-116, in the test with 786-0 and in the test on UACC-62 was > 100 µM (inactive) each time. The GI50 is 71.4 µM (inactive) in the test with SNB-19; > 100 µM (inactive) in the test on SF-295; 86.9 µM (inactive) in the test on BT-549; > 100 µM (inactive) in the test with NCI-H226; > 100 µM (inactive) in the test on U-251; > 100 µM (inactive) in the test on Hs-578T. Moreover, the GI50 in the test with MDA-N, in the test on CAKI-1, with MCF7 and in the test on UACC-257 was > 100 µM (inactive) in each case.

With `CC(=O)NCCc1c(-c2[nH]c3ccccc3c2CCNC(C)=O)[nH]c2ccccc12`, the GI50 is > 100 µM (inactive) in the test with SK-MEL-2; 49.2 µM (inactive) with OVCAR-4; > 100 µM (inactive) with HCT-116; 35.7 µM (inactive) in the test on 786-0; > 100 µM (inactive) in the test with UACC-62; > 100 µM (inactive) with SNB-19. In addition, the GI50 is > 100 µM (inactive) in the test with SF-295; > 100 µM (inactive) with BT-549; > 100 µM (inactive) in the test on NCI-H226; > 100 µM (inactive) in the test with U-251; 40.1 µM (inactive) with Hs-578T; > 100 µM (inactive) with SK-MEL-28. The GI50 in the test with A498 is 74.8 µM (inactive); in the test with MDA-N, > 100 µM (inactive); in the test with CAKI-1, > 100 µM (inactive); in the test with MCF7 it was > 100 µM (inactive); in the test with UACC-257, > 100 µM (inactive).

Take `CCOC(=O)CC/C(C)=N\n1c(Cc2ccc(Cl)cc2)n[nH]c1=O`: the GI50 in the test with SK-MEL-2, in the test on T47D, in the test with HCT-116, with 786-0, in the test on UACC-62 and in the test with SNB-19 was > 100 µM (inactive) in each case. The GI50 with SF-295, in the test with BT-549, with NCI-H226, with U-251, in the test with Hs-578T and in the test on SK-MEL-28 was > 100 µM (inactive) throughout. The GI50 in the test with Malme-3M, in the test on MDA-N, in the test on CAKI-1, in the test on MCF7 and in the test on UACC-257 was > 100 µM (inactive) each time.

In the case of `CC(=O)Nc1ccc2c3c(cc(O)c2c1)N(C(=O)CCCC(=O)N1CC(CCl)c2c1cc(O)c1cc(NC(C)=O)ccc21)CC3CCl` (configuration not stated), the GI50 with SK-MEL-2 is < 0.01 µM (active); in the test with OVCAR-4, 0.0238 µM (active); in the test with T47D, < 0.01 µM (active); in the test on HCT-116, < 0.01 µM (active); in the test with 786-0, < 0.01 µM (active); with UACC-62 it was < 0.01 µM (active). In addition, the GI50 was < 0.01 µM (active) with SNB-19; < 0.01 µM (active) in the test on SF-295; 0.011 µM (active) in the test with BT-549; < 0.01 µM (active) with NCI-H226; < 0.01 µM (active) in the test on U-251; 0.0285 µM (active) in the test with Hs-578T. Moreover, the GI50 with SK-MEL-28 is 0.0201 µM (active); in the test on A498, < 0.01 µM (active); in the test with Malme-3M, 0.01 µM (active); in the test on CAKI-1, < 0.01 µM (active); with MCF7 it was < 0.01 µM (active); in the test on UACC-257, 0.0114 µM (active).

In the case of `COc1cccc(C2C3=C(COC3=O)Oc3cc4c(cc32)OCO4)c1` (configuration not stated), the GI50 in the test with SK-MEL-2 is < 0.0247 µM (active); in the test with OVCAR-4 it was 0.424 µM (active); in the test with HCT-116, 0.0264 µM (active); with 786-0, 0.0344 µM (active); in the test with UACC-62 it was 0.0134 µM (active); with SNB-19, 0.187 µM (active). Besides, the GI50 in the test with SF-295 is < 0.0303 µM (active); with BT-549 it was > 100 µM (inactive); with NCI-H226 it was 0.0611 µM (active); in the test on U-251 it was 0.0445 µM (active); with Hs-578T, < 0.0176 µM (active); with SK-MEL-28, 0.0327 µM (active). Also, the GI50 with A498 is 0.0264 µM (active); in the test with Malme-3M, 0.0248 µM (active); in the test with MDA-N, < 0.01 µM (active); with CAKI-1, 0.0229 µM (active); with MCF7, 0.0246 µM (active); in the test with UACC-257, 0.0303 µM (active).

For the compound `CC(=O)O[C@H]1CCn2c3c(c(C)c21)C(=O)C(N1CC1)=C(C)C3=O`, the GI50 with SK-MEL-2 is > 10 µM (inactive); in the test on OVCAR-4 it was > 10 µM (inactive); with T47D, > 10 µM (inactive); in the test on HCT-116, > 10 µM (inactive); in the test with 786-0, > 10 µM (inactive); in the test with UACC-62 it was 9.04 µM (inactive). In addition, the GI50 was > 10 µM (inactive) in the test on SNB-19; 5.11 µM (inactive) in the test with SF-295; > 10 µM (inactive) with BT-549; > 10 µM (inactive) with NCI-H226; > 10 µM (inactive) with U-251; > 10 µM (inactive) with Hs-578T. Besides, the GI50 with Malme-3M is > 10 µM (inactive); in the test on MDA-N it was > 10 µM (inactive); with CAKI-1, > 10 µM (inactive); in the test with MCF7 it was 5.51 µM (inactive); in the test on UACC-257 it was > 10 µM (inactive).
